Reference: ChEMBL document CHEMBL1697821, “Development of a phospholipidosis database and predictive quantitative structure-activity relationship (QSAR) models” (Toxicol Mech Methods, 2008)

System: Phospholipidosis
Experiment: Literature-mined public compounds from Kruhlak et al phospholipidosis modelling dataset

Row | Structure (SMILES) | Phospholipidosis
1 | CC(C)NCC(O)COc1cccc2ccccc12 (stereo not given) [PROPRANOLOL] | Positive: weak inducer based on presence of foamy macrophages and cytoplasmic vacuolations
2 | CCCOC(=O)c1ccc(O)cc1 [PROPYLPARABEN] | Negative: based on the absence of positive reported data from WMDD
3 | Cc1ccc2c(-c3ccccc3)nc(=O)n(C(C)C)c2c1 [PROQUAZONE] | Negative: based on the absence of positive reported data from WMDD
4 | C[C@@H]1O[C@@H](O[C@@H]2C=C3CC[C@@H]4[C@H](CC[C@]5(C)[C@@H](c6ccc(=O)oc6)CC[C@]45O)[C@@]3(C)CC2)[C@H](O)[C@H](O)[C@H]1O [PROSCILLARIDIN] | Negative: based on the absence of positive reported data from WMDD
5 | CNCCCC1c2ccccc2C=Cc2ccccc21 [PROTRIPTYLINE] | Negative: based on the absence of positive reported data from WMDD
6 | CC(O)Cn1cnc2c1c(=O)n(C)c(=O)n2C (stereo not given) [PROXYPHYLLINE] | Negative: based on the absence of positive reported data from WMDD
7 | CN[C@@H](C)[C@@H](O)c1ccccc1 [PSEUDOEPHEDRINE] | Negative: based on the absence of positive reported data from WMDD
8 | Clc1ccc(C/C(=C\CN2CCCC2)c2ccccc2)cc1 [PYRROBUTAMINE] | Negative: based on the absence of positive reported data from WMDD
9 | CCN(CC)CCCC(C)Nc1c2ccc(Cl)cc2nc2ccc(OC)cc12 (stereo not given) [QUINACRINE] | Positive: strong inducer confirmed by electron microscopy
10 | CCC1NC(=O)c2cc(S(N)(=O)=O)c(Cl)cc2N1 (stereo not given) [QUINETHAZONE] | Negative: based on the absence of positive reported data from WMDD
11 | C=C[C@H]1C[N@@]2CC[C@H]1C[C@@H]2[C@@H](O)c1ccnc2ccc(OC)cc12 [QUINIDINE] | Positive: weak inducer based on presence of foamy macrophages and cytoplasmic vacuolations
12 | CC(CN1CC(=O)NC(=O)C1)N1CC(=O)NC(=O)C1 (stereo not given) [RAZOXANE] | Negative: based on the absence of positive reported data from WMDD
13 | CC1=C(/C=C/C(C)=C/C=C/C(C)=C/CO)C(C)(C)CCC1 [RETINOL] | Negative: based on the absence of positive reported data from WMDD
14 | NC(=O)c1ncn([C@@H]2O[C@H](CO)[C@@H](O)[C@H]2O)n1 [RIBAVIRIN] | Negative: based on the absence of positive reported data from WMDD
15 | Cc1cc2nc3c(=O)[nH]c(=O)nc-3n(C[C@H](O)[C@H](O)[C@H](O)COP(=O)(O)O)c2cc1C [RIBOFLAVIN 5'-PHOSPHATE] | Negative: based on the absence of positive reported data from WMDD
16 | Cc1cc2nc3c(=O)[nH]c(=O)nc-3n(C[C@H](O)[C@H](O)[C@H](O)CO)c2cc1C [RIBOFLAVIN] | Negative: based on the absence of positive reported data from WMDD
17 | CCn1nc(C)c2c1C(c1ccccc1)=NCC(=O)N2 [RIPAZEPAM] | Negative: based on the absence of positive reported data from WMDD
18 | CN(C)CCc1c[nH]c2ccc(Cn3cncn3)cc12 [RIZATRIPTAN] | Negative: based on the absence of positive reported data from WMDD
19 | CS(=O)(=O)c1ccc(C2=C(c3ccccc3)C(=O)OC2)cc1 [ROFECOXIB] | Negative: based on the absence of positive reported data from WMDD
20 | CCCC(=O)O[C@H]1[C@H](C)O[C@@H](O[C@H]2[C@H](N(C)C)[C@@H](O)[C@H](O[C@H]3[C@@H](CC=O)C[C@@H](C)[C@@H](O)/C=C/C=C/C[C@@H](C)OC(=O)C[C@@H](O)[C@@H]3OC)O[C@@H]2C)C[C@@]1(C)OC(=O)CC [ROKITAMYCIN] | Negative: based on the absence of positive reported data from WMDD
21 | O=C(Oc1ccccc1C(=O)O)c1ccccc1O [SALSALATE] | Negative: based on the absence of positive reported data from WMDD
22 | C=CCC1(C(C)CCC)C(=O)NC(=O)NC1=O (stereo not given) [SECOBARBITAL] | Negative: based on the absence of positive reported data from WMDD
23 | C#CCN(C)[C@H](C)Cc1ccccc1 [SELEGILINE] | Negative: based on the absence of positive reported data from WMDD
24 | O=C(O)c1cc(O)c2c(c1)[C@@H]([C@H]1c3cc(C(=O)O)cc(O)c3C(=O)c3c(O[C@@H]4O[C@H](CO)[C@@H](O)[C@H](O)[C@H]4O)cccc31)c1cccc(O[C@@H]3O[C@H](CO)[C@@H](O)[C@H](O)[C@H]3O)c1C2=O [SENNOSIDE B] | Negative: based on the absence of positive reported data from WMDD
25 | CN[C@H]1CC[C@@H](c2ccc(Cl)c(Cl)c2)c2ccccc21 [SERTRALINE] | Positive: weak inducer based on presence of foamy macrophages and cytoplasmic vacuolations
26 | OC[C@@H](O)[C@@H](O)[C@H](O)[C@@H](O)CO [SORBITOL] | Negative: based on the absence of positive reported data from WMDD
27 | CC(C)NCC(O)c1ccc(NS(C)(=O)=O)cc1 (stereo not given) [SOTALOL] | Negative: confirmed by electron microscopy
28 | CN[C@@H]1[C@H](O)[C@H](NC)[C@H]2O[C@@]3(O)C(=O)C[C@@H](C)O[C@H]3O[C@@H]2[C@H]1O [SPECTINOMYCIN] | Positive: weak inducer based on presence of foamy macrophages and cytoplasmic vacuolations

Row | Structure (SMILES) | Phospholipidosis
29 | O=C1CSC2(CCN(CCCN3c4ccccc4Sc4ccc(Cl)cc43)CC2)N1 [SPICLOMAZINE] | Negative: based on the absence of positive reported data from WMDD
30 | N=C(N)c1ccc(/C=C/c2ccc(C(=N)N)cc2)cc1 [STILBAMIDINE] | Positive: weak inducer based on presence of foamy macrophages and cytoplasmic vacuolations
31 | [H]/N=C(/N)N[C@H]1[C@H](O)[C@@H](O)[C@H](O[C@@H]2O[C@@H](C)[C@](O)(C=O)[C@H]2O[C@@H]2O[C@@H](CO)[C@H](O)[C@@H](O)[C@@H]2NC)[C@@H](N/C(N)=N\[H])[C@@H]1O [STREPTOMYCIN] | Negative: based on the absence of positive reported data from WMDD
32 | O=C1C[C@@H]2OCC=C3CN4CC[C@]56c7ccccc7N1[C@H]5[C@H]2[C@H]3C[C@H]46 [STRYCHNINE] | Negative: based on the absence of positive reported data from WMDD
33 | O=C(O)CCC(=O)O [SUCCINIC ACID] | Negative: based on the absence of positive reported data from WMDD
34 | COc1cc(NS(=O)(=O)c2ccc(N)cc2)nc(OC)n1 [SULFADIMETHOXINE] | Negative: based on the absence of positive reported data from WMDD
35 | COc1ncnc(NS(=O)(=O)c2ccc(N)cc2)c1OC [SULFADOXINE] | Negative: based on the absence of positive reported data from WMDD
36 | Cc1cc(NS(=O)(=O)c2ccc(N)cc2)no1 [SULFAMETHOXAZOLE] | Negative: confirmed by electron microscopy
37 | O=C1OC(c2ccc(O)c(S(=O)(=O)O)c2)(c2ccc(O)c(S(=O)(=O)O)c2)c2c(Br)c(Br)c(Br)c(Br)c21 [SULFOBROMOPHTHALEIN] | Negative: based on the absence of positive reported data from WMDD
38 | Cc1ccc(C(=O)Nc2ccc(S(=O)(=O)O)c3cc(S(=O)(=O)O)cc(S(=O)(=O)O)c23)cc1NC(=O)c1cccc(NC(=O)Nc2cccc(C(=O)Nc3cc(C(=O)Nc4ccc(S(=O)(=O)O)c5cc(S(=O)(=O)O)cc(S(=O)(=O)O)c45)ccc3C)c2)c1 [SURAMIN] | Positive: weak inducer based on presence of foamy macrophages and cytoplasmic vacuolations
39 | C[N+](C)(C)CCOC(=O)CCC(=O)OCC[N+](C)(C)C [SUXAMETHONIUM] | Negative: based on the absence of positive reported data from WMDD
40 | CC/C(=C(\c1ccccc1)c1ccc(OCCN(C)C)cc1)c1ccccc1 [TAMOXIFEN] | Positive: strong inducer confirmed by electron microscopy
41 | C[C@]1(Cn2ccnn2)[C@H](C(=O)O)N2C(=O)C[C@H]2S1(=O)=O [TAZOBACTAM] | Negative: based on the absence of positive reported data from WMDD
42 | COc1cc2nc(N3CCN(C(=O)C4CCCO4)CC3)nc(N)c2cc1OC (stereo not given) [TERAZOSIN] | Negative: based on the absence of positive reported data from WMDD
43 | CN(C/C=C/C#CC(C)(C)C)Cc1cccc2ccccc12 [TERBINAFINE] | Negative: based on the absence of positive reported data from WMDD
44 | CC(C)(C)NCC(O)c1cc(O)cc(O)c1 (stereo not given) [TERBUTALINE] | Negative: based on the absence of positive reported data from WMDD
45 | CC1(O)CCC(C(C)(C)O)CC1.O (stereo not given) [TERPIN HYDRATE] | Negative: based on the absence of positive reported data from WMDD
46 | CN(C)[C@@H]1C(O)=C(C(N)=O)C(=O)[C@@]2(O)C(O)=C3C(=O)c4c(O)cccc4[C@@](C)(O)[C@H]3C[C@@H]12 [TETRACYCLINE] | Negative: confirmed by electron microscopy
47 | O=C1CCC(N2C(=O)c3ccccc3C2=O)C(=O)N1 (stereo not given) [THALIDOMIDE] | Negative: based on the absence of positive reported data from WMDD
48 | CS(=O)(=O)c1ccc([C@H](O)[C@@H](COC(=O)CN)NC(=O)C(Cl)Cl)cc1 [THIAMPHENICOL GLYCINATE] | Negative: based on the absence of positive reported data from WMDD
49 | CS(=O)(=O)c1ccc([C@@H](O)[C@@H](CO)NC(=O)C(Cl)Cl)cc1 [THIAMPHENICOL] | Negative: based on the absence of positive reported data from WMDD
50 | CCCC(C)C1(CC)C(=O)NC(=S)NC1=O (stereo not given) [THIOPENTAL] | Negative: based on the absence of positive reported data from WMDD
51 | CC(=O)OCCN1CCN(CCCN2c3ccccc3Sc3ccc(Cl)cc32)CC1 [THIOPROPAZATE] | Negative: based on the absence of positive reported data from WMDD
52 | CSc1ccc2c(c1)N(CCC1CCCCN1C)c1ccccc1S2 (stereo not given) [THIORIDAZINE] | Positive: weak inducer based on presence of foamy macrophages and cytoplasmic vacuolations
53 | CN1CCN(CC/C=C2/c3ccccc3Sc3ccc(S(=O)(=O)N(C)C)cc32)CC1 [THIOTHIXENE] | Negative: based on the absence of positive reported data from WMDD
54 | O=c1cc[nH]c(=S)[nH]1 [THIOURACIL] | Negative: based on the absence of positive reported data from WMDD
55 | Cc1ccsc1C(=CCCN1CCC[C@@H](C(=O)O)C1)c1sccc1C [TIAGABINE] | Negative: based on the absence of positive reported data from WMDD
